Laboratory results from US9546176B2, “Small molecule bicyclic and tricyclic CFTR correctors” (DISCOVERYBIOMED, INC., priority 2012, dated 2017).
Like-named read-outs stand apart in the source and are kept apart here.

Legend:
[1] = target: T1, delF508-CFTR (Homo sapiens, UniProt P13569, DEL508-508); assay: SPQ halide-sensitive fluorescence dye assay for rescue of halide efflux (8-point concentration-response); type: cell-based; settings: for potency and efficacy compared with VX-809 in SPQ assay: versus VX-809
T1 construct: endogenous in cells; host or cells: CFBE41o- human CF bronchial epithelial cells (delF508 homozygous)
T1 sequence (P13569 with tags, fused parts or gaps DEL508-508): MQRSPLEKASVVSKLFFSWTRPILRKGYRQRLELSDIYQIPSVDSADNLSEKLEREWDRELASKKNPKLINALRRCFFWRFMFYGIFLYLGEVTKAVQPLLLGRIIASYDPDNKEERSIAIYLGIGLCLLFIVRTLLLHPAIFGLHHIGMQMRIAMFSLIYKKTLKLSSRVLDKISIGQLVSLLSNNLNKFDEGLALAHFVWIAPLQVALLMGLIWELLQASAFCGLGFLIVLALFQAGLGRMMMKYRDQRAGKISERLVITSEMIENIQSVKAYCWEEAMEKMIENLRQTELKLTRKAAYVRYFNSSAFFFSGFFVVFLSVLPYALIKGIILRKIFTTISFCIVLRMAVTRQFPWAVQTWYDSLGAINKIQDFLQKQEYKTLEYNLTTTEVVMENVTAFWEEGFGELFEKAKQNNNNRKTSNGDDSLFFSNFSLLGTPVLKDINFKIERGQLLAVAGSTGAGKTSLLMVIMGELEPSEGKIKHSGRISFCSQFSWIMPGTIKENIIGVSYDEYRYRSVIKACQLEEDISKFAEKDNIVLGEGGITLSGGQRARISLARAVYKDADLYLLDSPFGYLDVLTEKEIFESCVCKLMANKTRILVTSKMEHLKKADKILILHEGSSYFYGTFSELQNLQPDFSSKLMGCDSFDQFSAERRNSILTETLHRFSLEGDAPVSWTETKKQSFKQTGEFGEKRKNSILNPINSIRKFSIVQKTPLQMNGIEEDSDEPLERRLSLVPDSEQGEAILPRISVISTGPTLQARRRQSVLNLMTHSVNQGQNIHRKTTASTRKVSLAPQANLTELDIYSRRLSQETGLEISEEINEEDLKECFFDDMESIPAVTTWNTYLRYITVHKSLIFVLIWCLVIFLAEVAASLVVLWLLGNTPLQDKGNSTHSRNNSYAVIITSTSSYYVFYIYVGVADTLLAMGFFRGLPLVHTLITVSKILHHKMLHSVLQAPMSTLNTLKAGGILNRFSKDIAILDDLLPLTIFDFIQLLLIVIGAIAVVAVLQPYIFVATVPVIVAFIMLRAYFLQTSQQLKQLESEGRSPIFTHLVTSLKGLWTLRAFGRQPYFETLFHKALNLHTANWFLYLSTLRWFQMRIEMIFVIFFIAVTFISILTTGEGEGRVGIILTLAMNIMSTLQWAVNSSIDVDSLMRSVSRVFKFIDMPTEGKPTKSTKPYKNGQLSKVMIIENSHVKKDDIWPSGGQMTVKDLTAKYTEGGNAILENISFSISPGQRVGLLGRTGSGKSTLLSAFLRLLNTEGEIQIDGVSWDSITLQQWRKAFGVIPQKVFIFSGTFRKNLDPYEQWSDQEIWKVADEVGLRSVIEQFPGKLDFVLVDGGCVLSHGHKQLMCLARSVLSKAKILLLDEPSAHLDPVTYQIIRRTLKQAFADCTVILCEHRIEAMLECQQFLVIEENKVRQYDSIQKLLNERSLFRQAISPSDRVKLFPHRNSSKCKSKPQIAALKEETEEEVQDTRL
Experimental: The method of profiling can include detecting the rescue of halide efflux from a cell. The step of detecting a rescue of halide efflux from the cell can be monitored using the halide quenched dye 6-methoxy-N-(3-sulfopropyl)-quinolinium (SPQ, Molecular Probes Inc., Eugene, Oreg.). In this method, cells are treated with a compound as described herein for a period of time (e.g., 48 hours). The rescue or correction of halide efflux is then detected using the SPQ assay with the halide dye. […] Optionally, the halide efflux is chloride efflux. The method of screening can further comprise performing the method with multiple concentrations of the compound.
The compounds were initially subjected to the SPQ halide-sensitive fluorescence dye profiling assay for rescue or correction of membrane chloride ion permeability or transport with an 8-point concentration-response curve. The EC50 values for the compounds described herein were determined using SPQ (Table 1). The ΔSPQ value was calculated by determining the difference between the maximum and minimum SPQ values for the compounds.
To perform the SPQ high throughput screening assay, CFBE41o-cells were seeded into 96-well microtiter plates and were loaded with the fluorescent halide-sensitive dye, SPQ, in serum-containing culture medium. Certain wells were loaded with known positive control corrector molecules, including the industry standard Vertex 809 (VX-809; Vertex Pharmaceuticals, Cambridge, Mass.) at 3 μM, which is the maximally effective profiling dose for VX-809. The test compounds were loaded into wells and were tested in triplicate wells at a 10 μM dose and incubated over 48 hours at room temperature. During the 48 hour period, SPQ was absorbed. Plates were washed in a sodium chloride (NaCl) based Ringer and read once over two minutes to set the baseline SPQ fluorescence activity. Then, NaCl was replaced by sodium nitrate (NaNO3) based Ringer. The plates were read twice over four minutes. The primary high throughput screen (HTS) data were analyzed to detect any function of rescued delF508-CFTR under basal conditions. The plate was read up to two times to complete the SPQ HTS assay.

[2] = target: T2, delF508-CFTR chloride ion channels (Homo sapiens, UniProt P13569, DEL508-508); assay: Ussing chamber short-circuit current in high-resistance CF human airway epithelial cell monolayer; type: cell-based; settings: FIG. 15
T2 construct: delF508-CFTR chloride ion channels in a high-resistance CF human airway epithelial cell monolayer with Compound 1; endogenous in cells
T2 sequence (P13569 with tags, fused parts or gaps DEL508-508): as above
Experimental: An electrical assay was also performed to determine the functional rescue of delF508-CFTR to the apical cell membrane in a polarized epithelium using the compounds described herein. The metrics analyzed were the basal short-circuit Cl^− current, the change or delta Cl^− current stimulated by forskolin, the total stimulated Cl^− current (basal and forskolin), and the change or delta Cl^− current inhibited by GlyH101. For exemplary purposes, DMSO (100 nM) and VX-809 (100 nM equivalent) treatments were controls, and a CFCL corrector was tested (see FIG. 14).
Only high-resistance cell monolayers (>800 to 1,000 Ohms per cm^2) were used in the experiments. Basal short-circuit current (ISC) was measured and documented. Amiloride was added to the apical side of the Ussing chamber to block any contribution of ENaC or other sodium or cation channels under basal or stimulated conditions. The effect of amiloride was negligible under these cell culture conditions. In the continued presence of amiloride (100 μM), forskolin (10 μM) was added to both sides of the monolayer to selectively open any delF508-CFTR chloride channels in the apical cell membrane. This activation step uncovered any remaining corrected delF508-CFTR chloride ion channels in the apical membrane of the polarized CF human bronchial epithelium. […]

[3] = CFBE41o- cells, 48 h, read-out: SPQ EC50

Row | Structure (SMILES) | ΔSPQ (difference between maximum and minimum SPQ values) ([1]; CFBE41o- cells, 48 h) [RFU] | EC50 [1, 3] [µM] | also measured
1 | CC1(C)Cc2c(sc3c2c(=O)n(CCO)c(=O)n3Cc2ccccc2)CO1 [Compound 1] | 8345 |  | EC50 [1]: 3.5 µM; potency and efficacy compared with VX-809 in SPQ assay [1]: superior potency and efficacy to VX-809; potency and efficacy versus VX-809, short-circuit current [2]: superior potency and equivalent efficacy versus VX-809
2 | COCCCCN1CCN(c2nc3c(=O)n(C)c(=O)n(C)c3[nH]2)CC1 [Compound B-7.20] |  |  | SPQ EC50 ([1]; CFBE41o- cells, 48 h): No effect
3 | CCn1c(N2CCN(Cc3ccccc3C)CC2)nc2c1c(=O)[nH]c(=O)n2C [III-3] | 7195 | > 30 | 
4 | CCn1c(=O)c2c(nc3n(-c4ccc(C)cc4)c(C)c(C)n23)n(C)c1=O [Compound I-8] | 6975 | 3.6 | 
5 | CCCn1c(=O)c2c(nc3n2CCCN3Cc2ccccc2)n(C)c1=O [IV-1] | 12224 | 10.7 | 
6 | Cn1c(=O)c2nc(N3CCN(Cc4ccc5c(c4)OCCO5)CC3)[nH]c2n(C)c1=O [Compound B-7.8] |  |  | SPQ EC50 ([1]; CFBE41o- cells, 48 h): No effect
7 | CCc1ccc(-n2c(C)cn3c4c(=O)n(CCCO)c(=O)n(C)c4nc23)cc1 [Compound I-42] | 14593 | 19.7 | 
8 | CCCn1c(=O)c2c(nc3n2CCCN3c2ccc(C)cc2)n(C)c1=O [IV-6] | 8746 | > 30 | 
9 | CCn1c(=O)c2c(nc3n(-c4cccc(OC)c4)c(C)cn23)n(C)c1=O [Compound I-35] | 13989 | 18.1 | 
10 | CCn1c(=O)c2c(nc3n(-c4ccc(F)cc4)c(C)c(C)n23)n(C)c1=O [Compound I-7] | 5779 | 10.1 | 
11 | COc1ccc(N2CCN(Cc3nc4c(c(=O)n(C)c(=O)n4C)n3C(C)C)CC2)cc1 [III-6] | 2069 | 5.1 | 
12 | C=CCN1N=C(C)C(C)n2c1nc1c2c(=O)n(CCCC)c(=O)n1C (stereo not shown) [Compound V-9] | 10773 | 8.3 | 
13 | COc1cccc(CN2CCN(c3nc4c(=O)n(C)c(=O)n(C)c4[nH]3)CC2)c1 [Compound B-7.10] | 3750 | 7.1 | potency and efficacy compared with VX-809 in SPQ assay [1]: superior potency and efficacy to VX-809
14 | CCn1c(=O)c2c(nc3n2C(C)C(C)=NN3CCC(C)C)n(C)c1=O (stereo not shown) [Compound V-23] | 1055 | > 30 | 
15 | C=CCn1c(=O)c2c(nc3n2CC(C)=NN3Cc2ccccc2)n(C)c1=O [Compound V-17] | 3979 | 23 | 
16 | CCCCn1c(C)cn2c3c(=O)n(CCC)c(=O)n(C)c3nc12 [Compound I-2] | 3102 |  | EC50 [1]: > 30 µM
17 | C=C(C)CN1N=C(C)C(C)n2c1nc1c2c(=O)n(C/C=C/C)c(=O)n1C (stereo not shown) [Compound V-21] | 7505 | > 30 | 
18 | CCCCn1c(C)cn2c3c(=O)n(CC(=O)OC)c(=O)n(C)c3nc12 [Compound I-46] | 5027 | 10.6 | 
19 | CCCn1c(=O)c2c(nc3n(CC(C)C)c(C)c(C)n23)n(C)c1=O [Compound I-31] | 300 | 12.7 | 
20 | Cn1c(=O)c2nc(N3CCN(Cc4ccc(C(F)(F)F)cc4)CC3)[nH]c2n(C)c1=O [Compound B-7.7] |  |  | SPQ EC50 ([1]; CFBE41o- cells, 48 h): No effect

Row | Structure (SMILES) | ΔSPQ (difference between maximum and minimum SPQ values) ([1]; CFBE41o- cells, 48 h) [RFU] | EC50 [1, 3] [µM] | also measured
21 | Cc1cn2c3c(=O)n(C)c(=O)n(C)c3nc2n1CCO [Compound A-7] |  |  | SPQ EC50 ([1]; CFBE41o- cells, 48 h): No effect
22 | Cc1cn2c3c(=O)n(C)c(=O)n(C)c3nc2n1-c1ccc(O)cc1 [Compound A-3] | 2100 | 6.5 | potency and efficacy compared with VX-809 in SPQ assay [1]: superior potency and efficacy to VX-809
23 | CCOc1ccc(CN2CCN(c3nc4c(=O)n(C)c(=O)n(C)c4[nH]3)CC2)cc1 [Compound B-7.3] |  | 3.8 | 
24 | CCCn1c(=O)[nH]c(=O)c2c3c(cnc21)C(=O)CC(c1cccs1)C3 (stereo not shown) [VI-2] | 2777 | 4.2 | 
25 | Cc1cc(C)cc(-n2c(C)cn3c4c(=O)n(C)c(=O)n(C)c4nc23)c1 [Compound I-13] | 6131 | 9 | 
26 | Cn1c(=O)c2nc(N3CCN(Cc4ccc(O)cc4)CC3)[nH]c2n(C)c1=O [Compound B-7] |  |  | SPQ EC50 ([1]; CFBE41o- cells, 48 h): No effect
27 | Cc1cn2c3c(=O)n(C)c(=O)n(C)c3nc2n1CCN1CCOCC1 [Compound A-10] |  |  | SPQ EC50 ([1]; CFBE41o- cells, 48 h): No effect
28 | CCn1c(=O)c2c(nc3n(-c4cccc(Cl)c4C)c(C)cn23)n(C)c1=O [Compound I-23] | 13290 | 10.5 | 
29 | CCCN1N=C(C)C(C)n2c1nc1c2c(=O)n(CCC)c(=O)n1C (stereo not shown) [Compound V-16] | 5519 | > 30 | 
30 | COc1cccc(N2CC(C)Cn3c2nc2c3c(=O)n(CCCO)c(=O)n2C)c1 (stereo not shown) [IV-10] | 5748 | 22.9 | 
31 | CC1=NN(C)c2nc3c(c(=O)n(Cc4cccc(C)c4)c(=O)n3C)n2C1 [Compound V-8] | 5149 | 14 | 
32 | CCCn1c(C)cn2c3c(=O)n(Cc4ccccc4)c(=O)n(C)c3nc12 [Compound I-12] | 6259 | > 30 | 
33 | CCOC(=O)C1CCCN(c2nc3c(c(=O)n(C)c(=O)n3C)n2CC)C1 (stereo not shown) [III-5] | 4528 | 12.3 | 
34 | C/C=C/Cn1c(=O)c2c(nc3n(CCCC)c(C)cn23)n(C)c1=O [Compound I-27] | 8829 | 18.4 | 
35 | CCn1c(=O)c2c(nc3n2CCCN3c2cccc(OC)c2)n(C)c1=O [IV-3] | 15138 | 25.5 | 
36 | CCCn1c(=O)c2c(nc3n(-c4ccccc4OC)c(C)c(C)n23)n(C)c1=O [Compound I-17] | 3733 | 8.8 | 
37 | C=CCn1c(=O)c2c(nc3n(-c4ccc(OC)cc4)c(C)c(C)n23)n(C)c1=O [Compound I-26] | 4090 | 3.1 | 
38 | Cn1c(=O)c2nc(N3CCNCC3)[nH]c2n(C)c1=O [Compound B-2] |  |  | SPQ EC50 ([1]; CFBE41o- cells, 48 h): No effect
39 | Cc1c(C)n2c3c(=O)n(CCCO)c(=O)n(C)c3nc2n1CCc1ccccc1 [Compound I-48] | 5300 | 3.3 | 
40 | C=CCn1c(=O)c2c(nc3n(C(C)c4ccccc4)c(C)c(C)n23)n(C)c1=O (stereo not shown) [Compound I-43] | 9439 | 3.4 | 
